Experimental data taken from patent publication US20200016136A1 (VIIV HEALTHCARE UK (NO. 5) LIMITED, priority 2017, published 2020).
pEC50: −log10 of the molar value.

Test system: NL-RLuc virus (recombinant NL4-3 HIV with Renilla Luciferase gene)
Experiment: Inhibition of HIV replication (NL-RLuc virus in MT-2 cells, luciferase readout)
Type: cell-based, Human immunodeficiency virus (HIV)
Details: MT2, 120 h
Method in brief: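 EC50 derived via median effect equation from at least 2 experiments, using luciferase expression as virus-growth readout. Replication-competent NL-RLuc reporter virus (nef partly replaced by Renilla luciferase) infected MT-2 cells with serial compound dilutions; 5-day incubation in RPMI 1640 plus 10% FBS.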

In the case of `Cc1nc(C)c([C@H](OC(C)(C)C)C(=O)O)c(N2CCC(C)(C)CC2)c1-c1ccc2c(c1)CCN(c1cc(N3CCC(N4CCOCC4)CC3)ncn1)C2` [Example 134, (S)-2-(tert-Butoxy)-2-(4-(4,4-dimethylpiperidin-1-yl)-2,6-dimethyl-5-(2-(6-(4-morpholinopiperidin-1-yl)pyrimidin-4-yl)-1,2,3,4-tetrahydroisoquinolin-6-yl)pyridin-3-yl)acetic Acid], the pEC50 was 8.40.

Molecule `Cc1nc(N2CCc3cc(-c4c(C)nc(C)c([C@H](OC(C)(C)C)C(=O)O)c4N4CCC(C)(C)CC4)ccc3C2)c2oc3ccccc3c2n1` [Example 128, (S)-2-(tert-Butoxy)-2-(4-(4,4-dimethylpiperidin-1-yl)-2,6-dimethyl-5-(2-(2-methylbenzofuro[3,2-d]pyrimidin-4-yl)-1,2,3,4-tetrahydroisoquinolin-6-yl)pyridin-3-yl)acetic Acid] has a pEC50 of 8.70.

Work on `Cc1nc(CN2CCC3(CCC3)CC2)c(-c2ccc3c(c2)CCN(c2nccc(-c4cnccn4)n2)C3)c(N2CCC(C)(C)CC2)c1[C@H](OC(C)(C)C)C(=O)O` [Example 166, (S)-2-(6-(7-Azaspiro[3.5]nonan-7-ylmethyl)-4-(4,4-dimethylpiperidin-1-yl)-2-methyl-5-(2-(4-(pyrazin-2-yl)pyrimidin-2-yl)-1,2,3,4-tetrahydroisoquinolin-6-yl)pyridin-3-yl)-2-(tert-butoxy)acetic Acid] yielded a pEC50 of 9.22.

For `Cc1nc(C)c([C@H](OC(C)(C)C)C(=O)O)c(N2CCC(C)(C)CC2)c1-c1ccc2c(c1)CCN(c1ccnc(N3CCC(CCO)CC3)n1)C2` [Example 144, (S)-2-(tert-Butoxy)-2-(4-(4,4-dimethylpiperidin-1-yl)-5-(2-(2-(4-(2-hydroxyethyl)piperidin-1-yl)pyrimidin-4-yl)-1,2,3,4-tetrahydroisoquinolin-6-yl)-2,6-dimethylpyridin-3-yl)acetic Acid], the pEC50 was 8.52.

In the case of `Cc1nc(C)c([C@H](OC(C)(C)C)C(=O)O)c(N2CCC(C)(C)CC2)c1-c1ccc2c(c1)CCN(c1ncnc(N3CCOCC3)n1)C2` [Example 60, (S)-2-(tert-Butoxy)-2-(4-(4,4-dimethylpiperidin-1-yl)-2,6-dimethyl-5-(2-(4-morpholino-1,3,5-triazin-2-yl)-1,2,3,4-tetrahydroisoquinolin-6-yl)pyridin-3-yl)acetic Acid], the pEC50 was 9.22.

`Cc1nc(N2CCOCC2)nc(N2CCc3cc(-c4c(C)nc(C)c([C@H](OC(C)(C)C)C(=O)O)c4N4CCC(C)(C)CC4)ccc3C2)n1` [Example 56, (S)-2-(tert-Butoxy)-2-(4-(4,4-dimethylpiperidin-1-yl)-2,6-dimethyl-5-(2-(4-methyl-6-morpholino-1,3,5-triazin-2-yl)-1,2,3,4-tetrahydroisoquinolin-6-yl)pyridin-3-yl)acetic Acid] was tested, and the pEC50 was 9.00.

`Cc1nc(C)c([C@H](OC(C)(C)C)C(=O)O)c(N2CCC(C)(C)CC2)c1-c1ccc2c(c1)CCN(c1ccnc(N3C[C@@H](C)O[C@@H](C)C3)n1)C2` [Example 27, (2S)-2-(tert-Butoxy)-2-[5-(2-{2-[(2R,6S)-2,6-dimethylmorpholin-4-yl]pyrimidin-4-yl}-1,2,3,4-tetrahydroisoquinolin-6-yl)-4-(4,4-dimethylpiperidin-1-yl)-2,6-dimethylpyridin-3-yl]acetic Acid] showed a pEC50 of 8.70.

`CC1(C)CCN(Cc2nc(Cl)c([C@H](OC(C)(C)C)C(=O)O)c(N3CCC(C)(C)CC3)c2-c2ccc3c(c2)CCN(c2ncnc4c2oc2ncccc24)C3)CC1` [Example 114, (S)-2-(tert-Butoxy)-2-(2-chloro-4-(4,4-dimethylpiperidin-1-yl)-6-((4,4-dimethylpiperidin-1-yl)methyl)-5-(2-(pyrido[3′,2′:4,5]furo[3,2-d]pyrimidin-4-yl)-1,2,3,4-tetrahydroisoquinolin-6-yl)pyridin-3-yl)acetic Acid] showed a pEC50 of 10.00.

For `Cc1cccc(Cl)c1CN1CCc2cc(-c3c(CNCCCCc4ccccc4)nc(C)c([C@H](OC(C)(C)C)C(=O)O)c3N3CCC(C)(C)CC3)ccc2C1` [Example 155, (S)-2-(tert-Butoxy)-2-(5-(2-(2-chloro-6-methylbenzyl)-1,2,3,4-tetrahydroisoquinolin-6-yl)-4-(4,4-dimethylpiperidin-1-yl)-2-methyl-6-(((4-phenylbutyl)amino)methyl)pyridin-3-yl)acetic Acid], the pEC50 was 7.26.

Molecule `CCOc1nc(N2CCOCC2)nc(N2CCc3cc(-c4c(C)nc(C)c([C@H](OC(C)(C)C)C(=O)O)c4N4CCC(C)(C)CC4)ccc3C2)n1` [Example 59, (S)-2-(tert-Butoxy)-2-(4-(4,4-dimethylpiperidin-1-yl)-5-(2-(4-ethoxy-6-morpholino-1,3,5-triazin-2-yl)-1,2,3,4-tetrahydroisoquinolin-6-yl)-2,6-dimethylpyridin-3-yl)acetic Acid] has a pEC50 of 8.52.

Molecule `Cc1nc(C)c([C@H](OC(C)(C)C)C(=O)O)c(N2CCC(C)(C)CC2)c1-c1ccc2c(c1)CCN(c1cccc(N3CCOCC3)n1)C2` [Example 66, (S)-2-(tert-Butoxy)-2-(4-(4,4-dimethylpiperidin-1-yl)-2,6-dimethyl-5-(2-(6-morpholinopyridin-2-yl)-1,2,3,4-tetrahydroisoquinolin-6-yl)pyridin-3-yl)acetic Acid] has a pEC50 of 7.89.

`Cc1cccc(Cl)c1CN1CCc2cc(-c3c(NC4CCN(C)CC4)nc(C)c([C@H](OC(C)(C)C)C(=O)O)c3N3CCC(C)(C)CC3)ccc2C1` [Example 8, (S)-2-(tert-Butoxy)-2-(5-(2-(2-chloro-6-methylbenzyl)-1,2,3,4-tetrahydroisoquinolin-6-yl)-4-(4,4-dimethylpiperidin-1-yl)-2-methyl-6-((1-methylpiperidin-4-yl)amino)pyridin-3-yl)acetic Acid] was tested, and the pEC50 was 8.70.

`Cc1nc(C)c([C@H](OC(C)(C)C)C(=O)O)c(N2CCC(C)(C)CC2)c1-c1ccc2c(c1)CCN(c1ccnc(N3CCN(C)CC3)n1)C2` [Example 39, (2S)-2-(tert-Butoxy)-2-[4-(4,4-dimethylpiperidin-1-yl)-2,6-dimethyl-5-{2-[2-(4-methylpiperazin-1-yl)pyrimidin-4-yl]-1,2,3,4-tetrahydroisoquinolin-6-yl}pyridin-3-yl]acetic Acid] was tested, and the pEC50 was 8.30.

With `Cc1cc(F)ccc1CN1CCc2cc(-c3cnc(Cl)c([C@H](OC(C)(C)C)C(=O)O)c3N3CCC(C)(C)CC3)ccc2C1` [Example 113, (S)-2-(tert-Butoxy)-2-(2-chloro-4-(4,4-dimethylpiperidin-1-yl)-5-(2-(4-fluoro-2-methylbenzyl)-1,2,3,4-tetrahydroisoquinolin-6-yl)pyridin-3-yl)acetic Acid] the pEC50 was 8.52.

`Cc1nc(C)c([C@H](OC(C)(C)C)C(=O)O)c(N2CCC(C)(C)CC2)c1-c1ccc2c(c1)CCN(c1nccc(N3CCS(=O)(=O)CC3)n1)C2` [Example 46, (S)-2-(tert-Butoxy)-2-(4-(4,4-dimethylpiperidin-1-yl)-5-(2-(4-(1,1-dioxidothiomorpholino)pyrimidin-2-yl)-1,2,3,4-tetrahydroisoquinolin-6-yl)-2,6-dimethylpyridin-3-yl)acetic Acid] showed a pEC50 of 8.05.

`Cc1nc(C)c([C@H](OC(C)(C)C)C(=O)O)c(N2CCC(C)(C)CC2)c1-c1ccc2c(c1)CCN(c1ccnc(N3C4COCC3COC4)n1)C2` [Example 34, (2S)-2-(tert-Butoxy)-2-[4-(4,4-dimethylpiperidin-1-yl)-5-[2-(2-{3,7-dioxa-9-azabicyclo[3.3.1]nonan-9-yl}pyrimidin-4-yl)-1,2,3,4-tetrahydroisoquinolin-6-yl]-2,6-dimethylpyridin-3-yl]acetic Acid] showed a pEC50 of 8.30.

`Cc1nc(C)c([C@H](OC(C)(C)C)C(=O)O)c(N2CCC(C)(C)CC2)c1-c1ccc2c(c1)CCN(c1nccc(N3C[C@@H](C)O[C@@H](C)C3)n1)C2` [Example 28, (2S)-2-(tert-Butoxy)-2-[5-(2-{4-[(2R,6S)-2,6-dimethylmorpholin-4-yl]pyrimidin-2-yl}-1,2,3,4-tetrahydroisoquinolin-6-yl)-4-(4,4-dimethylpiperidin-1-yl)-2,6-dimethylpyridin-3-yl]acetic Acid] showed a pEC50 of 8.70.

`Cc1nc(C)c([C@H](OC(C)(C)C)C(=O)O)c(N2CCC(C)(C)CC2)c1-c1ccc2c(c1)CCN(c1cc(N3CCCCC3)ncn1)C2` [Example 124, (S)-2-(tert-Butoxy)-2-(4-(4,4-dimethylpiperidin-1-yl)-2,6-dimethyl-5-(2-(6-(piperidin-1-yl)pyrimidin-4-yl)-1,2,3,4-tetrahydroisoquinolin-6-yl)pyridin-3-yl)acetic Acid] was tested, and the pEC50 was 7.77.

`Cc1nc(C)c([C@H](OC(C)(C)C)C(=O)O)c(N2CCC(C)(C)CC2)c1-c1ccc2c(c1)CCN(c1cc(C(=O)O)ncn1)C2` [Example 127, (S)-6-(6-(5-(tert-Butoxy(carboxy)methyl)-4-(4,4-dimethylpiperidin-1-yl)-2,6-dimethylpyridin-3-yl)-3,4-dihydroisoquinolin-2(1H)-yl)pyrimidine-4-carboxylic Acid] showed a pEC50 of 5.89.

`Cc1cccc(Cl)c1CN1CCc2cc(-c3c(NCCn4cccn4)nc(C)c([C@H](OC(C)(C)C)C(=O)O)c3N3CCC(C)(C)CC3)ccc2C1` [Example 7, (S)-2-(6-((2-(1H-Pyrazol-1-yl)ethyl)amino)-5-(2-(2-chloro-6-methylbenzyl)-1,2,3,4-tetrahydroisoquinolin-6-yl)-4-(4,4-dimethylpiperidin-1-yl)-2-methylpyridin-3-yl)-2-(tert-butoxy)acetic Acid] showed a pEC50 of 7.89.

`Cc1nc(C)c([C@H](OC(C)(C)C)C(=O)O)c(N2CCC(C)(C)CC2)c1-c1ccc2c(c1)CCN(c1ccnc(N3CCC3)n1)C2` [Example 18, (2S)-2-(5-{2-[2-(Azetidin-1-yl)pyrimidin-4-yl]-1,2,3,4-tetrahydroisoquinolin-6-yl}-4-(4,4-dimethylpiperidin-1-yl)-2,6-dimethylpyridin-3-yl)-2-(tert-butoxy)acetic Acid] was tested, and the pEC50 was 9.00.

`Cc1nc(C)c([C@H](OC(C)(C)C)C(=O)O)c(N2CCC(C)(C)CC2)c1-c1ccc2c(c1)CCN(c1ccnc(N3CCC(O)CC3)n1)C2` [Example 75, (S)-2-(tert-Butoxy)-2-(4-(4,4-dimethylpiperidin-1-yl)-5-(2-(2-(4-hydroxypiperidin-1-yl)pyrimidin-4-yl)-1,2,3,4-tetrahydroisoquinolin-6-yl)-2,6-dimethylpyridin-3-yl)acetic Acid] was tested, and the pEC50 was 8.52.
